Columns and labels:
[1] = tested on: rabbit serum obtained by immunizing a rabbit with the SARS-CoV strain Frankfurt 1; assay type: binding; parameters: Binding of a rabbit serum to linear peptides / Binding of a rabbit serum to looped peptides / Rabbit serum linear peptides / Rabbit serum looped peptides / Binding of a rabbit serum to linear peptides of protein N of SARS-CoV Urbani (Rabbit serum linear peptides) / Binding of a rabbit serum to looped/cyclic peptides of protein N of SARS-CoV Urbani (Rabbit serum looped peptides): unit not given here
[2] = tested on: antibodies in sera from SARS patients (sera 1a, 1b, 2, 6, 37, 62, London, SARS-yellow, SARS-green); assay type: binding, human; parameters: Binding of serum 6 to linear peptides of protein X1 of SARS-CoV Urbani / Binding of serum 37 to linear peptides of protein X1 of SARS-CoV Urbani / Binding of serum 6 to looped/cyclic peptide (PEPSCAN-ELISA) / Binding of serum 37 to looped/cyclic peptide (PEPSCAN-ELISA) / Binding of serum 37 to looped/cyclic peptides of protein X1 of SARS-CoV Urbani / Binding of serum 6 to linear peptides of protein X2 / Binding of serum 37 to linear peptides of protein X2 / Binding of serum 37 to looped/cyclic peptides of protein X2 of SARS-CoV Urbani / Binding of serum 6 to linear peptides of protein M of SARS-CoV Urbani / Binding of serum 37 to linear peptides of protein M of SARS-CoV Urbani / Binding of serum 6 to looped/cyclic peptides of protein M of SARS-CoV Urbani / Binding of serum 37 to looped/cyclic peptides of protein M of SARS-CoV Urbani / Binding of serum 6 to linear peptides of protein X3 of SARS-CoV Urbani / Binding of serum 37 to linear peptides of protein X3 of SARS-CoV Urbani / Binding of serum 37 to looped/cyclic peptides of protein X3 of SARS-CoV Urbani / Binding of serum 6 to linear peptides of protein X4 of SARS-CoV Urbani / Binding of serum 37 to linear peptides of protein X4 of SARS-CoV Urbani / Binding of serum 37 to looped/cyclic peptides of protein X4 of SARS-CoV Urbani / Binding of serum 6 to linear peptides of protein X5 of SARS-CoV Urbani / Binding of serum 37 to linear peptides of protein X5 of SARS-CoV Urbani / Binding of serum 37 to looped/cyclic peptides of protein X5 of SARS-CoV Urbani / Binding of serum 6 to linear peptides of protein N of SARS-CoV Urbani / Binding of serum 37 to linear peptides of protein N of SARS-CoV Urbani / Binding of serum 6 to linear peptide (PEPSCAN-ELISA) / Binding of serum 1a to looped/cyclic peptides of protein N of SARS-CoV Urbani / Binding of serum 1b to looped/cyclic peptides of protein N of SARS-CoV Urbani / Binding of serum 2 to looped/cyclic peptides of protein N of SARS-CoV Urbani / Binding of serum 6 to looped/cyclic peptides of protein N of SARS-CoV Urbani / Binding of serum 37 to looped/cyclic peptides of protein N of SARS-CoV Urbani / Binding of serum 62 to looped/cyclic peptides of protein N of SARS-CoV Urbani / Binding of serum London to looped/cyclic peptides of protein N of SARS-CoV Urbani / Binding of serum SARS-green to looped/cyclic peptides of protein N of SARS-CoV Urbani: unit not given here
[3] = tested on: control sera (pooled serum of ten healthy LUMC hospital workers; commercial negative donor pooled serum from the Dutch bloodbank); assay type: binding, human; parameters: Binding of Control serum LUMC to linear peptides / Binding of Control serum Blood-bank to linear peptides / Binding of Control serum LUMC to looped peptides / Binding of Control Serum Blood-Bank to Looped peptides / Binding of Control serum LUMC to linear peptides of the protein M of SARS-CoV Urbani / Binding of Control serum Blood-bank to linear peptides of the protein M of SARS-CoV Urbani / Binding of Control serum LUMC to looped peptides of the protein M of SARS-CoV Urbani / Binding of Control Serum Blood-Bank to Looped peptides of the protein M of SARS-CoV Urbani: unit not given here

Sequence	Binding of a rabbit serum to linear peptides [1]	Binding of a rabbit serum to looped peptides [1]	Binding of serum 1a to linear peptides of protein X2 [2]	Binding of serum 1a to looped/cyclic peptides of protein X2 of SARS-CoV Urbani [2]	Binding of serum 1b to linear peptides of protein X2 [2]	Binding of serum 1b to looped/cyclic peptides of protein X2 of SARS-CoV Urbani [2]	Binding of serum 2 to linear peptides of protein X2 [2]	Binding of serum 2 to looped/cyclic peptides of protein X2 of SARS-CoV Urbani [2]	Binding of serum 6 to linear peptides of protein X2 [2]	Binding of serum 6 to looped/cyclic peptides of protein X2 of SARS-CoV Urbani [2]	Binding of serum 37 to linear peptides of protein X2 [2]	Binding of serum 37 to looped/cyclic peptides of protein X2 of SARS-CoV Urbani [2]	Binding of serum 62 to looped/cyclic peptides of protein X2 of SARS-CoV Urbani [2]	Binding of serum London to looped/cyclic peptides of protein X2 of SARS-CoV Urbani [2]	Binding of serum SARS-green to looped/cyclic peptides of protein X2 of SARS-CoV Urbani [2]	Binding of serum SARS-yellow to looped/cyclic peptides of protein X2 of SARS-CoV Urbani [2]	Binding of Control Serum Blood-Bank to Looped peptides [3]	Binding of Control serum Blood-bank to linear peptides [3]	Binding of Control serum LUMC to linear peptides [3]	Binding of Control serum LUMC to looped peptides [3]	also measured
KTHRMCKYTQSTALQ	0.3	0.3	0.7	0.4	0.5	0.4	0.6	0.2	0.5	0.4	0.7	0.2	0.4	0.2	0.2	0.2	0.5	0.6	0.5	0.4	Binding of serum 62 to linear peptides of protein X2 [2]: 0.6; Binding of serum London to linear peptides of protein X2 [2]: 0.5; Binding of serum SARS-green to linear peptides of protein X2 [2]: 0.5; Binding of serum SARS-yellow to linear peptides of protein X2 [2]: 0.8
KVLPFHRWHTMVQTC	–	–	–	–	–	–	–	–	–	–	–	–	–	–	–	–	0.6	0.6	0.4	0.5	Rabbit serum linear peptides [1]: 0.6; Rabbit serum looped peptides [1]: 0.5; Binding of serum 1a to linear peptides of protein X5 of SARS-CoV Urbani [2]: 0.9; Binding of serum 1a to looped/cyclic peptides of protein X5 of SARS-CoV Urbani [2]: 0.7; Binding of serum 1b to linear peptides of protein X5 of SARS-CoV Urbani [2]: 0.6; Binding of serum 1b to looped/cyclic peptides of protein X5 of SARS-CoV Urbani [2]: 0.7; Binding of serum 2 to linear peptides of protein X5 of SARS-CoV Urbani [2]: 0.7; Binding of serum 2 to looped/cyclic peptides of protein X5 of SARS-CoV Urbani [2]: 0.6; Binding of serum 6 to linear peptides of protein X5 of SARS-CoV Urbani [2]: 0.5; Binding of serum 6 to looped/cyclic peptides of protein X5 of SARS-CoV Urbani [2]: 0.7; Binding of serum 37 to linear peptides of protein X5 of SARS-CoV Urbani [2]: 0.7; Binding of serum 37 to looped/cyclic peptides of protein X5 of SARS-CoV Urbani [2]: 0.6; Binding of serum 62 to linear peptides of protein X5 of SARS-CoV Urbani [2]: 0.7; Binding of serum 62 to looped/cyclic peptides of protein X5 of SARS-CoV Urbani [2]: 0.6; Binding of serum London to linear peptides of protein X5 of SARS-CoV Urbani [2]: 1.2; Binding of serum London to looped/cyclic peptides of protein X5 of SARS-CoV Urbani [2]: 0.4; Binding of serum SARS-green to linear peptides of protein X5 of SARS-CoV Urbani [2]: 0.6; Binding of serum SARS-green to looped/cyclic peptides of protein X5 of SARS-CoV Urbani [2]: 0.4; Binding of serum SARS-yellow to linear peptides of protein X5 of SARS-CoV Urbani [2]: 0.2; Binding of serum SARS-yellow to looped/cyclic peptides of protein X5 of SARS-CoV Urbani [2]: 0.3
KVSTNLCTHSFRKKQ	0.3	0.1	–	0.4	–	0.3	–	0.5	–	0.5	–	0.4	0.6	0.2	0.3	0.5	0.4	1.0	0.8	0.7	Recognition of the peptide by sera of SARS-CoV infected individuals, and form (linear, looped/cyclic) in which it is recognized [2]: recognized in linear form
KVTAFQHQNSKKTTK	0.6	0.2	0.3	0.2	0.2	0.2	0.2	0.0	0.2	0.0	0.3	0.2	0.3	0.1	0.0	0.1	0.3	0.2	0.3	0.3	Binding of serum 62 to linear peptides of protein X2 [2]: 0.2; Binding of serum London to linear peptides of protein X2 [2]: 0.1; Binding of serum SARS-green to linear peptides of protein X2 [2]: 0.0; Binding of serum SARS-yellow to linear peptides of protein X2 [2]: 0.4

From US20070128217A1 (priority 2003, published 2007)
